Test system: melanin production induced by α-MSH
Assay: Inhibition of melanin production induced by α-MSH
Type: cell-based
Conditions: for Melanin content (%), Mean: α-MSH 0.1 μM 24 hours + TA treat 24 hours, 0.2% DMSO, α-MSH group = 100.0
Source text: This example explores the bioactivity of the synthesized oxyresveratrol compound in inhibiting melanin production as relative to commercial oxyresveratrol extracted from plant sources.

Compound	Melanin content (%), Mean (TA conc. 32 μM)	Melanin content (%), Mean (TA conc. 128 μM)	Inhibitory activity on melanin production compared with the commercial material (in words) (e.g., at 128 μM)	Inhibition of melanin production induced by α-MSH (in words) (32 and 128 μM)
Oc1cc(O)cc(/C=C/c2ccc(O)cc2O)c1 [Synthetic, oxyresveratrol]	75.7%	38.5%	greater inhibitory activity	–
Oc1cc(O)cc(/C=C/c2ccc(O)cc2O)c1 [Commercial, oxyresveratrol]	77.4%	45.5%	–	inhibited melanin production

Source: patent US20250154089A1, “METHODS FOR PREPARING OXYRESVERATROL AND DERIVATIVES THEREOF” (Caliway Biopharmaceuticals Co., Ltd., priority 2023, published 2025)
